Reference: article PMC9189929, “Synthesis, Screening and Characterization of Novel Potent Arp2/3 Inhibitory Compounds Analogous to CK-666” (Frontiers in Pharmacology, 2022)
Converted amounts (≈) assume the structure as drawn. “Also recorded” adds a separate entry of the source.

Legend:
MCF10A cells = assay: EdU incorporation / cell cycle progression screen in MCF10A cells; assay type: cell-based, human; conditions: for Outcome of EdU incorporation screen: 0.025 to 100 μM; for IC50: Homo sapiens, MCF-10A, 18 h treatment, rough values from Figure 1 graphs, read-out: IC50 (concentration required for 50% decrease of EdU-positive cells)
Experimental: For cell cycle progression using EdU, MCF10A cells were seeded in 384-well plates at a density of 800 cells per well. […] EdU from kit C10337 (ThermoFischer Scientific, Waltham, MA, United States) was then added to the cells at 10 μM and incubated for 2.5 h. Cells were fixed in 4% paraformaldehyde for 30 min at room temperature. Click-iT reaction was performed for 1 h at room temperature, protected from light, with 5 µM Alexa Fluor 488 azide in (100 mM Tris, 1 mM CuSO4, 50 mM Ascorbic Acid, pH 8.5). Nuclei were counterstained with Hoechst 33,342 (Thermo Fisher Scientific). Imaging and analysis were performed using the ImageXpress Micro XL High-Content Screening System (Molecular Devices LLC, San Jose, CA, United States). IC50 values were determined by sigmoidal curve fitting using GraphPad Prism six software.

B16-F1 cells [1] = assay: Lamellipodium formation in B16-F1 cells (cortactin immunofluorescence); assay type: cell-based, mouse; conditions: for Inhibition of lamellipodium formation: 100 μM, 1 h; for Dose-dependent inhibition of lamellipodium formation, potency relative to CK-666: dose-dependent assay (Figure 2D)
Experimental: Lyophilized compounds were resuspended with fresh DMSO from sealed vials (cell biology grade). Compounds, stored at +4°C, were used within a week. B16-F1 cells were seeded onto glass coverslips coated for 1 h with 25 μg/ml laminin (Sigma) in (50 mM Tris, 150 mM NaCl, pH 7.4). […] Cell were then processed for immunofluorescence.
Cells were fixed in 3.2% PFA on PBS, then quenched with 50 mM NH4Cl and permeabilised with 0.5% Triton X-100. After blocking in 2% BSA cells were incubated with antibodies (1–5 μg/ml for the primary, 5 μg/ml for the secondary). Total actin in cells was visualized by phalloidin staining. Nuclei were stained with 0.3 μg/ml DAPI (Roche). Coverslips were mounted in Dako Fluorescence Mounting Medium (Agilent). For immunofluorescence, ARPC2 rabbit polyclonal antibody (Millipore, 07–227), Cortactin mouse monoclonal 4F11 (Millipore, 05–180) were used. Secondary goat anti-mouse and anti-rabbit antibodies conjugated with Alexa Fluor 555 and 647 respectively were from Life Technologies. Phalloidin conjugated with Alexa Fluor 488 was from Tebu-bio.
(§1) Image analysis was performed in ImageJ or FIJI software. To measure wound healing, boundaries of the wound were drawn manually at different time points, then wound size was measured.

B16-F1 cells [2] = assay: Wound healing (cell migration) of B16-F1 cells; assay type: cell-based, mouse; conditions: for Inhibition of cell migration (wound healing) compared with 100 µM CK-666: compound at 25 µM
Experimental: For the wound healing, B16-F1 cells were seeded onto 8-well Ibidi dishes coated with laminin, and grown to confluence. Wounds in the cell monolayer were obtained by scratching the monolayer with a pipet tip. Detached cells were immediately washed away and new medium containing the various compounds was added. Cells were then used for videomicroscopy.
Videomicroscopy was performed on an inverted Axio Observer microscope (Zeiss) equipped with a Pecon Zeiss incubator XL multi S1 RED LS (Heating Unit XL S, Temp module, CO2 module, Heating Insert PS and CO2 cover), Definite focus module and a Hamamatsu camera C10600 Orca-R2. Phase contrast images were taken every 30 min for 24 h using the 10X/0.25 Plan-Apochromat air objective. For immunofluorescence, slides were observed and imaged with the 63X/1.4 Plan-Apochromat oil objective. Fluorophores were excited with the HBO 100 W lamp (Osram) installed in the HXP 120 Metal halide fluorescence light source (Zeiss).
as §1

Arp2/3 = molecular target: T1, Arp2/3 (Bos taurus, UniProt A7MB62+P61157); assay: Pyrene-actin polymerization assay; assay type: biochemical, bovine; conditions: for IC50: 1.5 μM actin (10% pyrenyl-labeled), read-out: IC50 of Arp2/3-mediated actin polymerization; for IC50 / Arp2/3 inhibition reached at saturation: 20 nM Arp2/3, 250 nM N-WASP VCA; for Arp2/3 inhibition reached at saturation: 1.5 μM actin
T1 construct: purchased Cytoskeleton, Inc
Experimental: Actin was purified from rabbit muscle and was pyrenyl-labeled ([Carlier et al., 1984]; [Malm, 1984]). Arp2/3 was from Cytoskeleton, Inc. VCA domain of N-WASP was purified as previously described ([Clainche et al., 2003]). Pyrene-actin polymerization assays were performed as previously ([Romero et al., 2007]). Briefly, CaATP-actin was converted into MgATP-actin in (5 mM Tris, 0.2 mM ATP, 0.1 mM CaCl2, 1 mM DTT, 1 mM MgCl2, and 0.2 mM EGTA, pH 7.6) and kept on ice for no more than 1 h. Actin polymerization was monitored in (5 mM Tris, 50 mM KCl, 0.2 mM ATP, 0.1 mM CaCl2, 1 mM DTT, 1 mM MgCl2, 0.2 mM EGTA, pH 7.6) in the presence of 2% DMSO alone or 2% DMSO containing the appropriated compound concentration. The increase in fluorescence of 10% pyrenyl-labeled actin was monitored using a Safas spectrofluorimeter (λexc = 366 nm, λem = 407 nm). The maximum rate of actin polymerization was derived from the maximum slope of the polymerization curve multiplied by [total polymer]/(RFUmax—RFUmin) [total polymer] is the total actin minus the critical concentration (0.1 μM) and RFU, Relative Fluorescence Unit. The maximum elongation rates of actin polymerization were plotted as a function of the concentration of the different compounds. For CK-666, 59, 69 and 71, curves were fitted with the following equation to determine the IC50. Mrate= Rmax−Rmax−Rmin/1+IC50/(Compound Conc.) where Mrate is the measured maximum rate of actin polymerization at a given compound concentration, Rmax is the maximum rate of actin polymerization with no compound, and Rmin is the maximum rate of actin polymerization at saturating concentration of compound.
The curve of compound 15 was fitted with a linear decay. The IC50 was determined at half inhibition of actin polymerization.

sea urchin embryos = assay: Sea urchin embryo development assay; assay type: in vivo, Paracentrotus lividus; conditions: for Effect on archenteron elongation / Effect on primary mesenchyme cell (PMC) migration: observed up to four-arm mid-pluteus stage
Experimental: The procedure was described in detail in [Semenova et al., 2018]. Briefly, adult sea urchins, Paracentrotus lividus L (Echinidae), were collected from the Mediterranean Sea on the Cyprus coast and kept in an aerated seawater tank. Gametes were obtained by intracoelomic injection of 0.5 M KCl. Eggs were washed with filtered seawater and fertilized by adding drops of diluted sperm. Embryos were cultured at room temperature under gentle agitation with a motor-driven plastic paddle (60 rpm) in filtered seawater. […] For treatment with test compounds, 5 ml aliquots of embryo suspension were transferred to six-well plates and incubated at a concentration of 1,000–2,000 embryos/ml. For images, sedimented embryos were concentrated in the center of the well by gentle rotation of the culture plate, and 200 μl aliquots containing several hundred embryos were used to take pictures (up to 20 images from different fields). Embryos selected for Figure 4 were representative of the population.
(§2) Stock solutions of compounds were prepared in DMSO at 50–250 mM concentration followed by a 10-fold dilution with 96% EtOH. This procedure enhanced the solubility of the test compounds in the salty seawater. Maximal tolerated concentrations of DMSO and EtOH in the assay were determined to be 0.05 and 1%, respectively. Higher concentrations of either DMSO (>0.1%) or EtOH (>1%) caused nonspecific alterations and retardation of the sea urchin embryo development independent of the treatment stage. Maximum solubility of compounds 15, 59, 69, and 71 was about 5–20 mM in seawater, since visible crystals formed at higher concentrations.
The effects were assessed after exposure of fertilized eggs (8–15 min post fertilization, 45–55 min before the first mitotic cycle completion) to 2-fold decreasing concentrations of the compound. Embryonic development was monitored until the beginning of active feeding at four-arm pluteus stage (33–36 h postfertilization). Developmental abnormalities were estimated quantitatively as minimal effective concentration (MEC), resulting in inhibition of archenteron elongation or skeletal spicule formation.

[3] = Maximum solubility in seawater; assay type: physicochemical; conditions: saline or isotonic, kinetic from dmso stock, visible crystals formed at higher concentrations
Experimental: as §2

[4] = treated at zygote stage, monitored to four-arm pluteus

| IC50 (Arp2/3) | Arp2/3 inhibition reached at saturation (Arp2/3) | solubility [3] | SMILES | Outcome of EdU incorporation screen (MCF10A cells) | IC50 (MCF10A cells) | Inhibition of lamellipodium formation (B16-F1 cells [1]) | Inhibition of cell migration (wound healing) compared with 100 µM CK-666 (B16-F1 cells [2]) | also measured |
| --- | --- | --- | --- | --- | --- | --- | --- | --- |
| – | – | – | Cc1ccc2[nH]c(C)c(CCNC(=O)c3ccc(C(=O)c4ccccc4)o3)c2c1 [Compound 30, 5-Benzoyl-N-[2-(2,5-dimethyl-1H-indol-3-yl)ethyl]-2-furamide] | scored positive | 0.696 µM | significantly less active than CK-666 | – | – |
| – | – | – | COCC(=O)NCCc1c[nH]c2ccccc12 [CK-689, N-(2-(1H-Indol-3-yl)ethyl)-2-methoxy-acetamide, reference compound] | – | – | formed a single wide lamellipodium encompassing most cell perimeter | – | Inhibition of wound healing (B16-F1 cells [2]; 100 µM): but not CK-689, inhibits wound healing; Activity against Arp2/3 in vitro (Arp2/3; pyrene-actin assay): inactive |
| 104 µM | 100% | 5 to 20 µM (≈ 1.91 to 7.65 µg/mL) | Cc1[nH]c2ccccc2c1CCNC(=O)c1ccccc1C(=O)c1ccccc1 [Compound 15, 2-Benzoyl-N-[2-(2-methyl-1H-indol-3-yl)ethyl]benzamide] | scored positive | 20 µM | – | inhibited cell migration as efficiently as 100 µM CK-666 | Dose-dependent inhibition of lamellipodium formation, potency relative to CK-666 (B16-F1 cells [1]): significantly more potent than CK-666; Cell rounding and detachment in wound healing assay (B16-F1 cells [2]; 25 µM): not observed; Cell rounding and detachment in wound healing assay (B16-F1 cells [2]; 100 µM): induced cell rounding followed by detachment from the substrate; Developmental abnormality (sea urchin embryos; 5 μM): suppressed plutei growth; Developmental abnormality (sea urchin embryos; 20 μM): Non-specific defects; also recorded: defective gastrulation was observed; Minimum effective concentration, Systemic Toxicity (sea urchin embryos; [4]): 5 µM |
| 180 µM | saturation was not reached | 5 to 20 µM (≈ 2.32 to 9.27 µg/mL) | Cc1[nH]c2ccc(OCc3ccccc3)cc2c1CCNC(=O)c1cccc(Br)c1 [Compound 59, N-{2-[5-(Benzyloxy)-2-methyl-1H-indol-3-yl]ethyl}-3-bromobenzamide] | scored positive | 11.5 µM | – | more active than CK-666 | Dose-dependent inhibition of lamellipodium formation, potency relative to CK-666 (B16-F1 cells [1]): slightly less active than CK-666; Cell rounding and detachment in wound healing assay (B16-F1 cells [2]; 25 µM): not observed; Cell rounding and detachment in wound healing assay (B16-F1 cells [2]; 100 µM): to a lesser extent 59 induced cell rounding followed by detachment from the substrate; Effect on archenteron elongation (sea urchin embryos): inhibited elongation of the archenteron at approximately half-size; Effect on primary mesenchyme cell (PMC) migration (sea urchin embryos): altered PMC migration resulting in the lack of ventrolateral clusters and spicules; Minimum effective concentration, Inhibition of Archenteron elongation (sea urchin embryos; [4]): 10 µM; Minimum effective concentration, Inhibition of Spicule formation (sea urchin embryos; [4]): 5 µM |
| – | – | – | CCc1cc2cc(C(=O)NCCc3c(C)[nH]c4ccc(C)cc34)sc2s1 [Compound 24, N-[2-(2,5-Dimethyl-1H-indol-3-yl)ethyl]-5-ethylthieno[2,3-b]thiophene-2-carboxamide] | scored positive | 4.01 µM | significantly less active than CK-666 | – | – |
| 61 µM | 67% | 5 to 20 µM (≈ 2.44 to 9.78 µg/mL) | Cc1[nH]c2c(Cl)cccc2c1CCNC(=O)c1cc(S(=O)(=O)N(C)C)c(Cl)cc1Cl [Compound 69, 2,4-Dichloro-N-[2-(7-chloro-2-methyl-1H-indol-3-yl)ethyl]-5-[(dimethylamino)sulfonyl]benzamide] | scored positive | 50.5 µM | – | inhibited cell migration as efficiently as 100 µM CK-666 | Developmental phenotype (sea urchin embryos; 12 μM, 22°C): Defective gastrulation; Effect on archenteron elongation (sea urchin embryos): inhibited elongation of the archenteron at approximately half-size; Effect on primary mesenchyme cell (PMC) migration (sea urchin embryos): altered PMC migration resulting in the lack of ventrolateral clusters and spicules; Minimum effective concentration, Inhibition of Archenteron elongation (sea urchin embryos; [4]): 5 µM; Minimum effective concentration, Inhibition of Spicule formation (sea urchin embryos; [4]): 5 µM |
| – | – | – | Cc1[nH]c2ccccc2c1CCNC(=O)c1cc([N+](=O)[O-])ccc1Cl [Compound 12, 2-Chloro-N-[2-(2-methyl-1H-indol-3-yl)ethyl]-5-nitrobenzamide] | scored positive | 13.8 µM | significantly less active than CK-666 | – | – |
